Reference: publication PMC7838546, “A Thermostable, Modified Cathelicidin-Derived Peptide With Enhanced Membrane-Active Activity Against Salmonella enterica serovar Typhimurium” (Frontiers in Microbiology, 2021)
Ends that are not written are not given here.

Columns and labels:
[1] = test system: Salmonella enterica serovar Typhimurium ATCC 13311; format: cell-based; settings: ATCC 13311, standard strain, triplicate; for MIC: broth microdilution, ~10^7 CFU/ml, 37°C, 24 h
Protocol: (§1) Salmonella enterica serovar Typhimurium ATCC 13311, 24 drug-resistant foodborne and eleven drug-resistant human borne S. enterica serovar Typhimurium and 4,5,12:i:- isolates (Table 1) were used as test microorganisms. They were previously isolated for molecular characterization in 2014 and kindly provided by Dr. Soraya Chaturongakul (Mahidol University, Thailand) ([Huoy et al., 2014]). All bacteria were cultured in Tryptic Soy Broth (TSB) and incubated at 37°C for 18 h. Mueller Hinton Broth (MHB) was then used to wash and rinse the bacteria. The bacterial suspensions were then diluted to obtain concentrations of 10^7 CFU/ml for inoculations.
(§2) A modified version of the National Committee for Clinical Laboratory Standards (NCCLS) broth microdilution method ([Steinberg et al., 1997]) was used to determine the minimum inhibitory concentrations (MICs) of peptide and compared to that of nisin. Fifty microliters of two-fold serial dilutions of each peptide [0.98–250 μg/ml in 0.01% (v/v) acetic acid and 0.2% (w/v) bovine serum albumin (BSA, Sigma-Aldrich, MO, United States)], were incubated with 50 μl of bacterial suspensions (approximately 10^7 CFU/ml) at 37°C for 24 h in a shaking incubator. MICs were taken as the lowest concentration of peptide at which growth was inhibited as observed by visual inspection. Bacterial cultures without peptides and uncultured broth were used as positive and negative controls, respectively. Minimal bactericidal concentrations (MBCs) were determined using a colony count assay ([Clinical Laboratory Standards Institute [CLSI], 2015]). Fifty microliters of samples from each non-turbid well in the MIC determination experiment was plated on Mueller Hinton Agar (MHA) and colonies were observed after overnight incubation at 37°C. MBCs were designated as the least concentration showing no colony growth on the plate. All of experiments were performed in triplicate.

[2] = test system: S. enterica serovar 4,5,12:i:- H2-044 (foodborne isolate); format: cell-based, Salmonella enterica serovar 4,5,12:i:-; settings: H2-044, pork kidney, resistant Amp, C, T, SxT, intermediate Cp; for MIC: broth microdilution, 37°C, 24 h
Protocol: as §1, §2

[3] = test system: S. enterica serovar 4,5,12:i:- H1-100 (clinical isolate); format: cell-based, Salmonella enterica serovar 4,5,12:i:-; settings: H1-100, stool, resistant Amp, C, Cp, T, SxT, intermediate Amc, NA; for MIC: broth microdilution, 37°C, 24 h
Protocol: as §1, §2

[4] = test system: S. enterica serovar 4,5,12:i:- H2-009 (foodborne isolate); format: cell-based, Salmonella enterica serovar 4,5,12:i:-; settings: H2-009, pork fat, resistant Amp, C, T, broth microdilution, 37°C, 24 h
Protocol: as §1, §2

[5] = test system: S. enterica serovar 4,5,12:i:- H2-075 (foodborne isolate); format: cell-based, Salmonella enterica serovar 4,5,12:i:-; settings: H2-075, pork intestine, resistant Amp, T; for MIC: broth microdilution, 37°C, 24 h
Protocol: as §1, §2

[6] = test system: S. enterica serovar 4,5,12:i:- H2-070 (foodborne isolate); format: cell-based, Salmonella enterica serovar 4,5,12:i:-; settings: H2-070, pork liver, resistant Amp, Ctx, C, T, SxT, intermediate Cp; for MIC: broth microdilution, 37°C, 24 h
Protocol: as §1, §2

[7] = test system: S. enterica serovar 4,5,12:i:- H2-039 (foodborne isolate); format: cell-based, Salmonella enterica serovar 4,5,12:i:-; settings: H2-039, pork intestine, resistant Amp, T; for MIC: broth microdilution, 37°C, 24 h
Protocol: as §1, §2

[8] = test system: S. enterica serovar 4,5,12:i:- H2-045 (foodborne isolate); format: cell-based, Salmonella enterica serovar 4,5,12:i:-; settings: H2-045, pork intestine, resistant Amp, T, intermediate Cp; for MIC: broth microdilution, 37°C, 24 h
Protocol: as §1, §2

[9] = test system: S. enterica serovar 4,5,12:i:- H1-024 (clinical isolate); format: cell-based, Salmonella enterica serovar 4,5,12:i:-; settings: H1-024, rectal swab, resistant Amc, Amp, Ctx, C, NA, SxT, intermediate Cp; for MIC: broth microdilution, 37°C, 24 h
Protocol: as §1, §2

[10] = test system: S. enterica serovar 4,5,12:i:- H2-054 (foodborne isolate); format: cell-based, Salmonella enterica serovar 4,5,12:i:-; settings: H2-054, pork intestine, resistant Amp, T; for MIC: broth microdilution, 37°C, 24 h
Protocol: as §1, §2

[11] = test system: S. enterica serovar 4,5,12:i:- H1-102 (clinical isolate); format: cell-based, Salmonella enterica serovar 4,5,12:i:-; settings: H1-102, stool, resistant Amp, C, T, SxT, intermediate Amc; for MIC: broth microdilution, 37°C, 24 h
Protocol: as §1, §2

[12] = test system: S. enterica serovar 4,5,12:i:- H2-010 (foodborne isolate); format: cell-based, Salmonella enterica serovar 4,5,12:i:-; settings: H2-010, pork skin, resistant Amp, C, T, broth microdilution, 37°C, 24 h
Protocol: as §1, §2

[13] = test system: S. enterica serovar 4,5,12:i:- H2-042 (foodborne isolate); format: cell-based, Salmonella enterica serovar 4,5,12:i:-; settings: H2-042, pork intestine, resistant Amp, C, T, SxT, intermediate Cp; for MIC: broth microdilution, 37°C, 24 h
Protocol: as §1, §2

[14] = test system: S. enterica serovar 4,5,12:i:- H2-038 (foodborne isolate); format: cell-based, Salmonella enterica serovar 4,5,12:i:-; settings: H2-038, pork kidney, resistant Amp, T; for MIC: broth microdilution, 37°C, 24 h
Protocol: as §1, §2

[15] = test system: S. enterica serovar 4,5,12:i:- H2-043 (foodborne isolate); format: cell-based, Salmonella enterica serovar 4,5,12:i:-; settings: H2-043, pork heart, resistant Amp, T, intermediate Cp; for MIC: broth microdilution, 37°C, 24 h
Protocol: as §1, §2

[16] = test system: S. enterica serovar 4,5,12:i:- H2-049 (foodborne isolate); format: cell-based, Salmonella enterica serovar 4,5,12:i:-; settings: H2-049, pork intestine, resistant Amp, T, broth microdilution, 37°C, 24 h
Protocol: as §1, §2

Which results are given for KIAKRIWKILRR-NH2 [P7]?
MIC [1]: 3.91 (3.91) μg/ml; MBC ([1]; colony count on MHA): 3.91 (3.91) μg/ml; MIC [2]: 7.81 (7.81) μg/ml; MBC ([2]; colony count on MHA): 7.81 (7.81) μg/ml; MIC [3]: 7.81 (7.81) μg/ml; MBC ([3]; colony count on MHA): 7.81 (7.81) μg/ml; MIC [4]: 3.91 µg/mL; MIC [5]: 7.81 (7.81) μg/ml; MBC ([5]; colony count on MHA): 7.81 (7.81) μg/ml; MIC [6]: 7.81 (7.81) μg/ml; MBC ([6]; colony count on MHA): 7.81 (7.81) μg/ml; MIC [7]: 3.91 (3.91) μg/ml; MBC ([7]; colony count on MHA): 3.91 (3.91) μg/ml; MIC [8]: 7.81 (7.81) μg/ml; MBC ([8]; colony count on MHA): 7.81 (7.81) μg/ml; MIC [9]: 3.91 (3.91) μg/ml; MBC ([9]; colony count on MHA): 3.91 (3.91) μg/ml; MIC [10]: 7.81 (7.81) μg/ml; MBC ([10]; colony count on MHA): 7.81 (7.81) μg/ml; MIC [11]: 7.81 (7.81) μg/ml; MBC ([11]; colony count on MHA): 7.81 (7.81) μg/ml; MIC [12]: 3.91 µg/mL; MIC [13]: 7.81 (7.81) μg/ml; MBC ([13]; colony count on MHA): 7.81 (7.81) μg/ml; MIC [14]: 7.81 (7.81) μg/ml; MBC ([14]; colony count on MHA): 7.81 (7.81) μg/ml; MIC [15]: 7.81 (7.81) μg/ml; MBC ([15]; colony count on MHA): 7.81 (7.81) μg/ml; MIC [16]: 3.91 µg/mL

How did the MIC [1] turn out when “Nisin: authorized food preservative peptide, binds lipid II and forms membrane pores (ITSISLCTPGCKTGALMGCNMKTATCHCSIHVSK; cysteine pairing not given here; also: lantibiotic nisin-A; UniProt P13068 24-57, looked up)” was run?
The MIC was over 1000 µg/mL.

What about the MIC [2] of the same substance?
Its MIC is over 1000 µg/mL.

And the MIC [3]?
The MIC was over 1000 µg/mL.

And the MIC [4]?
Its MIC is over 1000 µg/mL.

What about the MIC [5] of the same substance?
The MIC was over 1000 µg/mL.

What about the MIC [6] of the same substance?
Its MIC is over 1000 µg/mL.

What about the MIC [7] of the same substance?
Its MIC is over 1000 µg/mL.

What about the MIC [8] of the same substance?
The MIC was over 1000 µg/mL.

What about the MIC [9] of the same substance?
Its MIC is over 1000 µg/mL.

What about the MIC [10] of the same substance?
The MIC was over 1000 µg/mL.

What about the MIC [11] of the same substance?
The MIC was over 1000 µg/mL.

What about the MIC [12] of the same substance?
The MIC was over 1000 µg/mL.

And the MIC [13]?
Its MIC is over 1000 µg/mL.

And the MIC [14]?
The MIC was over 1000 µg/mL.

What about the MIC [15] of the same substance?
The MIC was over 1000 µg/mL.

And the MIC [16]?
The MIC was over 1000 µg/mL.
